According to patent US20100099756A1, “USES OF INCENSOLE, INCENSOLE ACETATE AND DERIVATIVES THEREOF” (YISSUM RESEARCH DEVELOPMENT COMPANY OF THE HEBREW …, priority 2006, published 2010):

Key:
mouse TRPV3-YFP = molecular target: T1, mouse TRPV3-YFP (Mus musculus, UniProt Q8K424); assay: Whole-cell voltage-clamp, TRPV3-YFP expressing HEK293 cells; format: cell-based; details: IA 200 μM; 2-APB 100 μM; charge −85 to −45 mV
T1 construct: expressed in transfected cells
T1 sequence (Q8K424 1-791): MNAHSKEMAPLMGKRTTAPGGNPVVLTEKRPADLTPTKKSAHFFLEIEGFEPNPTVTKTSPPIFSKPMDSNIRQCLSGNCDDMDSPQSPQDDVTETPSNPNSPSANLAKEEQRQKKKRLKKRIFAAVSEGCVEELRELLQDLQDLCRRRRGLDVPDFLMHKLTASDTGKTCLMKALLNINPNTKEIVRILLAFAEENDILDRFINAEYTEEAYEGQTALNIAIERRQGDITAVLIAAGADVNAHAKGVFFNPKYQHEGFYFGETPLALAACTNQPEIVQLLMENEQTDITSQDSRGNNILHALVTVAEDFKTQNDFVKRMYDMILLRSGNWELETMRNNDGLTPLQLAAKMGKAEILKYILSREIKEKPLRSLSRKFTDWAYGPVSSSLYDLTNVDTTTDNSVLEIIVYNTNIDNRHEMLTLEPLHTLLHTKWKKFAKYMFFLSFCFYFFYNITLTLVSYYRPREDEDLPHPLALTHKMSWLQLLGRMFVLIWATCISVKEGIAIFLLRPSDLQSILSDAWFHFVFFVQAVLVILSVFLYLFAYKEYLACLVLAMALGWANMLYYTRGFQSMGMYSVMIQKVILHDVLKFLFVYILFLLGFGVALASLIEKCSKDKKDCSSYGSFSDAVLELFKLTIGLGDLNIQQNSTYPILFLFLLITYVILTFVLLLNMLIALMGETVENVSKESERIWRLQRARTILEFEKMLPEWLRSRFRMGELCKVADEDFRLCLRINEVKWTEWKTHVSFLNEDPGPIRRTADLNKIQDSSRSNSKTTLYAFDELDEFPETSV
Method: (§1) Electrophysiological recording. Currents were recorded using whole-cell voltage-clamp. Pipettes were pulled from microcapillary glass (A-M Systems). A coverslip containing cells was transferred to a 300 μL chamber that was constantly perfused (1-2 mL/min) with external solution. Voltage protocols were generated and data were digitized and recorded using Pulse (HEKA Elektronik) software in conjunction with an Axopatch 200A amplifier (Axon Instruments), and the data analyzed using an in-house Visual Basic (Microsoft) analysis program.
(§2) The external solution contained (in mM): 120 NaCl, 5 KCl, 1 MgCl2, 2 CaCl2, 10 Glucose and 20 HEPES, pH 7.4 with NaOH. The measured charge (pC) was defined as the charge elicited between -85 and -45 mV by a ramping voltage stimulus (−85 mV to +35 mV, 0.54 mV/msec; holding potential -55 mV). Currents were sampled at 5 kHz. Experimental and control cells were alternated whenever possible. Control values were obtained from adjacent cells with no detectable YFP fluorescence, presumed to be non-TRPV3-expressing.

anxiety-like behavior = assay: Elevated plus maze; format: in vivo, female Sabra mice; details: 50 mg/kg i.p.
General toxicity in mice = format: in vivo; details: single dose 150 mg/kg and 30 mg/kg 3 times a week for a month
TRPV4 = assay: Whole-cell voltage-clamp, TRPV4(+) cells; format: cell-based; details: IA 200 μM
Method: TRPV3(+) response to IA is shown for reference. *, p<0.001. Error bars represent SEM, n=4-5.
as §1
as §2, with “The pipette solution contained (in mM): 121.5 Kgluconate, 10 HEPES, 17 KCl, 9 NaCl, 1 MgCl2, 0.2 EGTA, 2 MgATP, and 0.5 NaATP, pH 7.2. The external” for “The external”

rat-TRPV2 = molecular target: T2, rat-TRPV2 (Rattus norvegicus, UniProt Q9WUD2); assay: Calcium imaging of HEK293 cells transiently transfected with rat-TRPV2; format: cell-based; details: IA 100 μM
T2 construct: expressed in transfected cells; host or cells: HEK293 (transient, lipofectamine)
T2 sequence (Q9WUD2 whole entry): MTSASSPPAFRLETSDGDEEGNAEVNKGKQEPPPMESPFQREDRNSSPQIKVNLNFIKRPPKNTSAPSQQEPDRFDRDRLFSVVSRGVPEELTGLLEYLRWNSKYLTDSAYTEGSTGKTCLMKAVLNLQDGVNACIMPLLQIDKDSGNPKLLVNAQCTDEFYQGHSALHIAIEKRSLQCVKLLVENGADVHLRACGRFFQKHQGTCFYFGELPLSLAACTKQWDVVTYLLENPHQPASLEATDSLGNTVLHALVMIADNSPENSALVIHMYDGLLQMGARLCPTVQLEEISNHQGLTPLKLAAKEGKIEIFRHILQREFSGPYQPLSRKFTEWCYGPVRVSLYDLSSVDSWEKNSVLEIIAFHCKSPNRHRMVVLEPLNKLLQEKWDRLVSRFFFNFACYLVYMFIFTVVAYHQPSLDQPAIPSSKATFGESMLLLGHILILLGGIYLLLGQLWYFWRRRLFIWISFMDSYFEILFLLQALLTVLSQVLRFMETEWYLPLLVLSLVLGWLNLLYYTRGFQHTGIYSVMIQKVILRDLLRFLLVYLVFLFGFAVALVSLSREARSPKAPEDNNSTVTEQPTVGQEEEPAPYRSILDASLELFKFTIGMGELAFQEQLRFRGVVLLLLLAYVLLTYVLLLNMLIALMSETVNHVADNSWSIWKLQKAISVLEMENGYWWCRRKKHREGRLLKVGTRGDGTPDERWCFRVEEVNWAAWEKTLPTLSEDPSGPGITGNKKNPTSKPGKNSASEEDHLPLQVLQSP
Description: All error bars indicate SEM; p values in all subfigures but c represent analysis with one-way ANOVA Bonferroni's post hoc.
HEK293 cells were transiently transfected with a rat TRPV2 plasmid using lipofectamine reagent (Invitrogen, Carlsbad, Calif.) according to manufacturer's protocol. They were then maintained in Dulbecco's modified Eagle Medium/10% fetal calf serum supplemented with Penicillin, Streptomycin, and L-glutamine. Primary keratinocytes from TRPV3-deficient and TRPV3+/+ mouse pups (day 1-4) were harvested and cultured as described previously [Chung, M. K., Lee, H., Mizuno, A., Suzuki, M. & Caterina, M. J. TRPV3 and TRPV4 mediate warmth-evoked currents in primary mouse keratinocytes. J. Biol. Chem. 279, 21569-21575 (2004)].
For single cell calcium imaging, HEK293-rat TRPV2 and HEK293-mouse TRPV3-YFP expressing cells were plated on collagen-coated glass cover slips. Cells were loaded for 60 min with 3 μM Fura-2 AM.

[1] = system: receptors known to be involved in psychoactivity; assay: Interaction with receptors involved in psychoactivity

CC(=O)OC1CC/C(C)=C/CC/C(C)=C/CC2(C(C)C)CCC1(C)O2 (stereo not drawn) [IA, incensole acetate]
current activation in TRPV3(+) HEK293 cells (mouse TRPV3-YFP): activation of currents
time in open arms of the elevated plus maze (anxiety-like behavior): potent anxiolytic-like effect
weight loss (General toxicity in mice): No weight loss was observed
current activation in TRPV4(+) cells (TRPV4): does not activate currents
calcium influx in rat-TRPV2 transfected HEK293 cells (rat-TRPV2): did not induce calcium influx
interaction with receptors known to be involved in psychoactivity [1]: does not interact
